Experimental data published in patent publication US20240209022A1, “NOVEL PEPTIDE HAVING ANTI-INFLAMMATORY AND TISSUE REGENERATIVE ACTIONS” (KOREA RESEARCH INSTITUTE OF BIOSCIENCE AND BIOTECHNOLOGY, priority 2020, published 2024).
“Also recorded” adds a separate entry of the source.

Key:
[1] = tested on: collagen induced arthritis (CIA) model; experiment: Collagen induced arthritis (CIA) rheumatoid arthritis model; assay type: in vivo, DBA/1J mice; settings: vs PBS buffer group; for thickness of the ankle joint: at the end of the experiment
[2] = tested on: MIA-induced degenerative arthritis model; experiment: MIA-induced degenerative arthritis model; assay type: in vivo, C57BL/6J mice; settings: vs PBS buffer group; for diameter of the knee joint: day 1 after MIA injection, i.p.; for thickness of the knee joint: days 3, 5, and 7 after MIA injection
Protocol: As a degenerative arthritis model, 9-week-old specific pathogen free (SPF) male C57BL/6J mice were anesthetized, the area around the right knee joint was cleanly shaved, and 10 μL of MIA solution (monosodium iodoacetate 0.5 mg in 10 μL 0.9% sterile saline) was injected into the knee joint cavity to induce arthritis. From 3 days before MIA (monosodium iodoacetate) solution injection, Amuc_1409 or PEP001, PEP002, PEP003, PEP004, PEP005, PEP006, PEP007, PEP008, PEP009, PEP010, PEP011, PEP012, or PEP013 was dissolved in PBS buffer at a concentration of 6.7 μM and then injected into the mouse peritoneal cavity at 150 μL per animal once a day at the same time. On day 3 (0 days) after administration of Amuc_1409 or PEP001 to PEP013, an additional intraperitoneal injection was given 1 hour before MIA injection, the drug was intraperitoneally injected once a day at the same time after MIA injection, and the experiment was terminated on the 30th day after MIA injection. In the control group, the same volume of PBS buffer was injected intraperitoneally. After MIA injection, the diameter of the knee joint was measured using a caliper for 7 days at 2-day intervals (0, 1, 3, 5, and 7 days) to evaluate swelling caused by inflammatory changes of the joint. […] At this time, the weight bearing on the limb was lower as arthritis was more severe. The weight-bearing weight (g) of each of both paws was measured, and in this experiment, the value was expressed as the ratio (%) of the right hind limb with arthritis to the total hind limb. Weight bearing ratio (%)=weight-bearing weight of right hind limb with arthritis (g)/weight-bearing weight of both hind limbs (g)×100 After termination of the experiment, the test animals were sacrificed, then the knee joint tissue of the mouse was fixed with 10% neutral buffered formalin, and the bone was decalcified with a 0.5 M EDTA solution. Next, the joint tissue was embedded in paraffin to prepare a 5 μm joint section, and Safranin O staining was performed to histopathologically analyze the degree of damage to the cartilage tissue. At this time, the degree of damage to the cartilage tissue was evaluated by examining the degree of safranin O staining of the sections and scored according to OARSI (Osteoarthritis Research Society International grade) guidelines. The scoring criteria according to the OARSI guidelines are as follows (Table 1). [table]

[3] = tested on: animal model of metabolic disease accompanied by obesity/diabetes and chronic inflammation; experiment: High-fat diet obesity/diabetic metabolic disease model; assay type: in vivo, C57BL/6J mice; settings: for blood glucose in insulin resistance experiment (ITT): after insulin administration, time as stated in the value; for blood glucose in insulin resistance experiment (ITT) / AUC value of the insulin resistance experiment / body weight / LDL-C level in blood / TC (total cholesterol) level in blood / abdominal fat: vs PBS buffer group; for fasting blood glucose: after fasting for 16 hours at the end of the test; for body weight: oral, 3 weeks on high-fat diet
Protocol: An animal model of metabolic disease accompanied by obesity/diabetes and chronic inflammation was induced by feeding a high-fat diet.
The experiment in the groups administered with Amuc_1409 or PEP001 to PEP005 was performed using 8-week-old SPF male C57BL/6J mice, and the metabolic disease accompanied by obesity/diabetes and chronic inflammation was induced by ad libitum feeding of a high-fat diet for 45 weeks or 8 weeks. Specifically, mice fed a high-fat diet for 45 weeks were fed a high-fat diet for an additional 3 weeks, and Amuc_1409 was dissolved in PBS buffer at a concentration of 2.4 μM and then orally administered to the mice by 150 μL per animal at the same time once a day until the end of the experiment, or mice fed a high-fat diet for 8 weeks were fed a high-fat diet for an additional 3 weeks, and PEP001, PEP002, PEP003, PEP004, or PEP005 was dissolved in PBS buffer at a concentration of 2.4 μM and then orally administered to the mice by 150 μL per animal at the same time once a day until the end of the experiment. To the control group, PBS buffer was orally administered in the same manner.
For the experiment in the groups administered with PEP006 to PEP013, 8-week-old male C57BL/6J mice were used, and the metabolic disease accompanied by obesity/diabetes and chronic inflammation was induced by ad libitum feeding of a high-fat diet for 32, 50, or 53 weeks. Mice fed a high-fat diet for 32 weeks were fed a high-fat diet for an additional 3 weeks, and a novel tetrapeptide PEP006 was dissolved in PBS buffer at a concentration of 0.15 μg/150 μL (PEP006) and then orally administered to the mice by 150 μL per animal at the same time until the end of the test, mice fed a high-fat diet for 50 weeks were fed a high-fat diet for an additional 3 weeks, and a novel tetrapeptide PEP007, PEP008, PEP009, or PEP010 was dissolved in PBS buffer at a concentration of 0.2 μg/150 μL (PEP007 to PEP013) and then orally administered to the mice by 150 μL per animal at the same time until the end of the test, and mice fed a high-fat diet for 53 weeks were fed a high-fat diet for an additional 3 weeks, and a novel […] PEP011, PEP012, or PEP013 was dissolved in PBS buffer at a concentration of 0.2 μg/150 μL (PEP007 to PEP013) and then orally administered to the mice by 150 μL per animal at the same time until the end of the test. To the control group, PBS buffer was orally administered in the same manner.
For all animals, general symptoms were observed immediately before administration at the start of administration, and the body weight was measured until the end of the test after group separation.
Insulin (Humalog, 1 unit/kg) was intraperitoneally injected into mice fasted for 4 hours at 2 weeks after the start of test substance administration (2 weeks in groups administered with Amuc_1409 and PEP001 to PEP005 and 3 weeks in groups administered with PEP006 to PEP013), and then blood glucose at 30 minutes, 60 minutes, 90 minutes, and 120 minutes was measured from a small amount of blood obtained through a wound at the tip of the tail using ACCU-CHECK (Roche), thereby performing an insulin tolerance test (ITT).
At the end of the test, fasting blood glucose was measured from a small amount of blood obtained through a wound at the tip of the tail of the mouse fasted for 16 hours using ACCU-CHECK, and blood was collected from the orbital venous plexus using a heparin-treated capillary tube. The collected blood was immediately centrifuged at 10,000 rpm (4° C.) for 10 minutes to separate plasma, and then subjected to analysis of total cholesterol (TC) and low-density lipoprotein cholesterol (LDL-C), which are blood abnormal lipid indicators, using an automated blood biochemical analyzer.

[4] = 2 weeks and 4 weeks after MIA injection

Row | Substance | thickness of the ankle joint [1] | arthritis index (clinical score by date) [1] | swelling of the hind paws by macrophotography [1] | weight bearing ratio ([2]; 2 weeks after MIA injection) | weight bearing ratio ([2]; 4 weeks after MIA injection) | blood glucose in insulin resistance experiment (ITT) [3] | AUC value of the insulin resistance experiment [3] | weight bearing ratio [2, 4] | diameter of the knee joint [2] | thickness of the knee joint [2] | fasting blood glucose [3] | body weight [3] | maintenance of the decreased blood glucose in insulin resistance experiment ([3]; until 120 minutes after insulin) | LDL-C level in blood [3] | TC (total cholesterol) level in blood [3] | abdominal fat [3]
1 | AGAY (PEP006) | significantly decreased | significantly decreased on day 28 after the first injection of CII; also recorded: tended to decrease from day 30 to the experiment end day | remarkably improved | significantly increased | significantly increased | decreased to a significant level from 30 minutes to 120 minutes after insulin administration | decreased close to a significant level |  |  |  |  |  |  |  |  | 
2 | AGS [PEP012] | significantly decreased | significantly decreased from day 32 after the first CII injection to the experiment end day | relieved overall |  |  | decreased close to a significant level from 30 minutes to 120 minutes after insulin administration | decreased close to a significant level | significantly improved |  |  |  |  |  |  |  | 
3 | AIS [PEP013] | tended to decrease | tended to decrease | relieved overall |  |  | decreased close to a significant level from 30 minutes to 120 minutes after insulin administration | decreased close to a significant level | tended to be improved |  |  |  |  |  |  |  | 
4 | AQS [PEP011] | significantly decreased | significantly decreased from day 30 after the first CII injection to the experiment end day | relieved overall |  |  | decreased close to a significant level from 30 minutes to 120 minutes after insulin administration | decreased close to a significant level | significantly improved |  |  |  |  |  |  |  | 
5 | AVS (AVSSIKGAY) [PEP004] | significantly decreased | significantly decreased from day 32 after the first CII injection to the experiment end day | reduced overall |  |  | decreased at 30 minutes after insulin administration | decreased | significantly increased | significantly decreased | significantly decreased | decreased | significantly decreased | significantly maintained until 120 minutes | significantly decreased | tended to decrease | decreased
6 | AVSSI (PEP002) | significantly decreased | significantly decreased from day 26 after the first CII injection to the experiment end day | reduced overall |  |  | decreased at 30 minutes after insulin administration | decreased | significantly increased | significantly decreased | significantly decreased | decreased | decreased from the initial body weight |  | significantly decreased | decreased | decreased
7 | AVSSIKGAY (PEP001) | significantly decreased | significantly decreased from day 30 after the first CII injection to the experiment end day | reduced overall |  |  | decreased at 30 minutes after insulin administration | decreased | significantly increased | tended to decrease | significantly decreased |  | decreased from the initial body weight |  | significantly decreased | decreased | decreased
8 | GAY [PEP005] | significantly decreased | significantly decreased from day 28 after the first CII injection to the experiment end day | reduced overall |  |  | decreased at 30 minutes after insulin administration | decreased | significantly increased | tended to decrease | significantly decreased | decreased | significantly decreased |  | significantly decreased | tended to decrease | decreased
